{
  "source": "paper PMC5218480",
  "about": "(PLoS ONE, 2017)",
  "test_system": "MV-4-11 cells",
  "assay": "Gene expression microarray analysis (Affymetrix PrimeView) and GSEA",
  "type": "cell-based, human",
  "parameters": "RFU PODN (11730768_x_at) / Fold change /veh PODN (11730768_x_at) / RFU LINC00158 (11744669_a_at) / Fold change /veh LINC00158 (11744669_a_at) / RFU DUSP10 (11751237_a_at) / Fold change /veh DUSP10 (11751237_a_at) / RFU ID3 (11757404_x_at) / Fold change /veh ID3 (11757404_x_at) / RFU PLEKHG5 (11737974_s_at) / Fold change /veh PLEKHG5 (11737974_s_at) / RFU LRRC4B (11730491_at) / Fold change /veh LRRC4B (11730491_at) / RFU GIMAP4 (11747438_a_at) / Fold change /veh GIMAP4 (11747438_a_at) / RFU KRT8 (11758183_x_at) / Fold change /veh KRT8 (11758183_x_at) / RFU CNN1 (11734310_a_at) / Fold change /veh CNN1 (11734310_a_at) / RFU VPS37D (11726825_at) / Fold change /veh VPS37D (11726825_at) / RFU C10orf10 (11716522_x_at) / Fold change /veh C10orf10 (11716522_x_at) / RFU KIR2DL2 /// KIR2DL4 /// KIR2DL5A /// KIR2DL5B /// KIR2DS1 /// KIR2DS2 /// KIR2DS3 /// KIR2DS4 /// KIR3DL3 /// KIR3DL3 /// KIR3DS1 (11738374_at) / Fold change /veh KIR2DL2 /// KIR2DL4 /// KIR2DL5A /// KIR2DL5B /// KIR2DS1 /// KIR2DS2 /// KIR2DS3 /// KIR2DS4 /// KIR3DL3 /// KIR3DL3 /// KIR3DS1 (11738374_at) / RFU C1QL1 (11718748_at) / Fold change /veh C1QL1 (11718748_at) / RFU TMPRSS4 (11747572_a_at) / Fold change /veh TMPRSS4 (11747572_a_at) / RFU HAMP (11756126_x_at) / Fold change /veh HAMP (11756126_x_at) / RFU RNFT2 (11725882_a_at) / Fold change /veh RNFT2 (11725882_a_at) / RFU NR4A2 (11747474_a_at) / Fold change /veh NR4A2 (11747474_a_at) / RFU ABCC12 (11746883_a_at) / Fold change /veh ABCC12 (11746883_a_at) / RFU TMEM136 (11760407_x_at) / Fold change /veh TMEM136 (11760407_x_at) / RFU CLDN22 /// WWC2 (11732394_at) / Fold change /veh CLDN22 /// WWC2 (11732394_at) / RFU HLA-DPB1 (11760878_x_at) / Fold change /veh HLA-DPB1 (11760878_x_at) / RFU SPINT1 (11716480_a_at) / Fold change /veh SPINT1 (11716480_a_at) / RFU GAP43 (11754022_s_at) / Fold change /veh GAP43 (11754022_s_at) / RFU A4GNT (11735810_at) / Fold change /veh A4GNT (11735810_at) / RFU PRB3 (11715151_x_at) / Fold change /veh PRB3 (11715151_x_at) / RFU TUBB4B (11761932_at) / Fold change /veh TUBB4B (11761932_at) / RFU CAPN14 (11732068_a_at) / Fold change /veh CAPN14 (11732068_a_at) / RFU TMCC2 (11721928_a_at) / Fold change /veh TMCC2 (11721928_a_at) / RFU IRGQ (11745062_a_at) / Fold change /veh IRGQ (11745062_a_at) / RFU FAM174B (11720279_a_at) / Fold change /veh FAM174B (11720279_a_at) / RFU TMPRSS4 (11748680_a_at) / Fold change /veh TMPRSS4 (11748680_a_at) / RFU FAM212B (11763350_a_at) / Fold change /veh FAM212B (11763350_a_at) / RFU PLEKHG5 (11743358_a_at) / Fold change /veh PLEKHG5 (11743358_a_at) / RFU ZSCAN30 (11745921_a_at) / Fold change /veh ZSCAN30 (11745921_a_at) / RFU CMKLR1 (11741424_a_at) / Fold change /veh CMKLR1 (11741424_a_at) / RFU LOC101060620 /// MAPK8IP1 (11723275_at) / Fold change /veh LOC101060620 /// MAPK8IP1 (11723275_at) / RFU SPTSSB (11747773_x_at) / Fold change /veh SPTSSB (11747773_x_at) / RFU PRSS12 (11739890_at) / Fold change /veh PRSS12 (11739890_at) / RFU BIN1 (11741810_x_at) / Fold change /veh BIN1 (11741810_x_at) / RFU WNT11 (11732464_a_at) / Fold change /veh WNT11 (11732464_a_at) / RFU C10orf10 (11716521_a_at) / Fold change /veh C10orf10 (11716521_a_at) / RFU C5orf56 (11738089_at) / Fold change /veh C5orf56 (11738089_at) / RFU CYB561 (11721691_x_at) / Fold change /veh CYB561 (11721691_x_at) / RFU ANKRD19P (11752326_a_at) / Fold change /veh ANKRD19P (11752326_a_at) / RFU OR2T12 /// OR2T33 /// OR2T8 (11738714_s_at) / Fold change /veh OR2T12 /// OR2T33 /// OR2T8 (11738714_s_at) / RFU VCAN (11748164_a_at) / Fold change /veh VCAN (11748164_a_at) / RFU JSRP1 (11732532_at) / Fold change /veh JSRP1 (11732532_at) / RFU KRTAP10-11 (11738290_x_at) / Fold change /veh KRTAP10-11 (11738290_x_at) / RFU MYO3A (11730013_a_at) / Fold change /veh MYO3A (11730013_a_at) / RFU EBF3 (11725865_a_at) / Fold change /veh EBF3 (11725865_a_at) / RFU CAMK2N1 (11719241_x_at) / Fold change /veh CAMK2N1 (11719241_x_at) / RFU C5orf56 (11738088_a_at) / Fold change /veh C5orf56 (11738088_a_at) / RFU OLFML3 (11715873_a_at) / Fold change /veh OLFML3 (11715873_a_at) / RFU LOC100653217 /// NTM (11731650_a_at) / Fold change /veh LOC100653217 /// NTM (11731650_a_at) / RFU MAPK11 (11762145_a_at) / Fold change /veh MAPK11 (11762145_a_at) / RFU FIZ1 (11724087_x_at) / Fold change /veh FIZ1 (11724087_x_at) / RFU OASL (11726364_x_at) / Fold change /veh OASL (11726364_x_at) / RFU SOX15 (11748057_x_at) / Fold change /veh SOX15 (11748057_x_at) / RFU CD79A (11719716_a_at) / Fold change /veh CD79A (11719716_a_at) / RFU HIST1H1D (11736915_at) / Fold change /veh HIST1H1D (11736915_at) / RFU CASKIN2 (11723855_a_at) / Fold change /veh CASKIN2 (11723855_a_at) / RFU LOC730098 (11760151_x_at) / Fold change /veh LOC730098 (11760151_x_at) / RFU OR4N2 (11742367_at) / Fold change /veh OR4N2 (11742367_at) / RFU PRRT2 (11749266_a_at) / Fold change /veh PRRT2 (11749266_a_at) / RFU SNX32 (11753110_a_at) / Fold change /veh SNX32 (11753110_a_at) / RFU CDHR5 (11726645_a_at) / Fold change /veh CDHR5 (11726645_a_at) / RFU RCAN1 (11760418_a_at) / Fold change /veh RCAN1 (11760418_a_at) / RFU FAM167A (11723789_a_at) / Fold change /veh FAM167A (11723789_a_at) / RFU FAM26E (11764081_at) / Fold change /veh FAM26E (11764081_at) / RFU ISYNA1 (11749810_s_at) / Fold change /veh ISYNA1 (11749810_s_at) / RFU ACY1 (11761880_at) / Fold change /veh ACY1 (11761880_at) / RFU 11764098_at / Fold change /veh 11764098_at / RFU SAMD14 (11745864_x_at) / Fold change /veh SAMD14 (11745864_x_at) / RFU NPB (11741838_a_at) / Fold change /veh NPB (11741838_a_at) / RFU TMPRSS6 (11731388_a_at) / Fold change /veh TMPRSS6 (11731388_a_at) / RFU KRTAP10-2 (11738614_at) / Fold change /veh KRTAP10-2 (11738614_at) / RFU ARHGAP8 /// PRR5-ARHGAP8 (11727945_x_at) / Fold change /veh ARHGAP8 /// PRR5-ARHGAP8 (11727945_x_at) / RFU KRTAP5-7 /// NADSYN1 (11734609_at) / Fold change /veh KRTAP5-7 /// NADSYN1 (11734609_at) / RFU RASL12 (11751679_a_at) / Fold change /veh RASL12 (11751679_a_at) / RFU CDKN2B (11736163_a_at) / Fold change /veh CDKN2B (11736163_a_at) / RFU PRF1 (11729649_at) / Fold change /veh PRF1 (11729649_at) / RFU, ZNF638 /// ZNF638-IT1 / Fold change vs veh, ZNF638 /// ZNF638-IT1 / RFU, PANK3 / Fold change vs veh, PANK3 / RFU, SH3YL1 / Fold change vs veh, SH3YL1 / RFU, ZEB2 / Fold change vs veh, ZEB2 / RFU, NRIP1 / Fold change vs veh, NRIP1 / RFU, PTTG1IP / Fold change vs veh, PTTG1IP / RFU, CAPN2 / Fold change vs veh, CAPN2 / RFU, MED14 / Fold change vs veh, MED14 / RFU, SNORA58 / Fold change vs veh, SNORA58 / RFU, C1orf63 / Fold change vs veh, C1orf63 / RFU, LRRFIP1 / Fold change vs veh, LRRFIP1 / RFU, NDUFAF7 / Fold change vs veh, NDUFAF7 / RFU, SLC12A2 / Fold change vs veh, SLC12A2 / RFU, IBTK / Fold change vs veh, IBTK / RFU, ESF1 / Fold change vs veh, ESF1 / Fold change vs veh, TMEM50B / RFU, TAOK1 / Fold change vs veh, TAOK1 / RFU, ACBD3 / Fold change vs veh, ACBD3 / RFU, TMA16 / Fold change vs veh, TMA16 / RFU, RWDD3 / Fold change vs veh, RWDD3 / RFU, BCAT1 / Fold change vs veh, BCAT1 / RFU, EDEM3 / Fold change vs veh, EDEM3 / RFU, TMEM33 / Fold change vs veh, TMEM33 / RFU, WDR75 / Fold change vs veh, WDR75 / RFU, AHCTF1 / Fold change vs veh, AHCTF1 / RFU, TFRC / Fold change vs veh, TFRC / RFU, ZDHHC17 / Fold change vs veh, ZDHHC17 / RFU, NOM1 / Fold change vs veh, NOM1 / RFU, ARL8B / Fold change vs veh, ARL8B / RFU, ZBTB11 / Fold change vs veh, ZBTB11 / RFU, TAMM41 / Fold change vs veh, TAMM41 / RFU, KIAA1704 /// LOC100996395 / Fold change vs veh, KIAA1704 /// LOC100996395 / RFU, ING1 / Fold change vs veh, ING1 / RFU, TRMT61B / Fold change vs veh, TRMT61B / RFU, FUBP3 / Fold change vs veh, FUBP3 / RFU, TP53 / Fold change vs veh, TP53 / RFU, TNKS2 / Fold change vs veh, TNKS2 / RFU, ZFP14 / Fold change vs veh, ZFP14 / RFU, ACTR2 / Fold change vs veh, ACTR2 / RFU, PPP3R1 / Fold change vs veh, PPP3R1 / RFU, PIK3R1 / Fold change vs veh, PIK3R1 / RFU, HNRNPA1 / Fold change vs veh, HNRNPA1 / RFU, RNF170 / Fold change vs veh, RNF170 / RFU, ZNF28 / Fold change vs veh, ZNF28 / RFU, RNGTT / Fold change vs veh, RNGTT / RFU, OGT / Fold change vs veh, OGT / RFU, BRD1 / Fold change vs veh, BRD1 / RFU, MARS / Fold change vs veh, MARS / RFU, ZNF655 / Fold change vs veh, ZNF655 / RFU, FAHD1 / Fold change vs veh, FAHD1 / RFU, BDP1 / Fold change vs veh, BDP1 / RFU, LRRCC1 / Fold change vs veh, LRRCC1 / RFU, ARID1A / Fold change vs veh, ARID1A / RFU, ZNF146 / Fold change vs veh, ZNF146 / RFU, ZNF330 / Fold change vs veh, ZNF330 / RFU, GPN3 / Fold change vs veh, GPN3 / RFU, C9orf123 / Fold change vs veh, C9orf123 / RFU, N4BP2L2 / Fold change vs veh, N4BP2L2 / RFU, ARFIP1 / Fold change vs veh, ARFIP1 / RFU, FAM179B / Fold change vs veh, FAM179B / RFU, BCL10 / Fold change vs veh, BCL10 / RFU, UHRF1BP1L / Fold change vs veh, UHRF1BP1L / RFU, BET1 / Fold change vs veh, BET1 / RFU, CNOT2 / Fold change vs veh, CNOT2 / RFU, ZNF268 / Fold change vs veh, ZNF268 / Fold change vs veh, ZNF507 / RFU, DGCR2 / Fold change vs veh, DGCR2 / RFU, WDSUB1 / Fold change vs veh, WDSUB1 / Fold change vs veh, HSP90B1 /// MIR3652 / RFU, ADSS / Fold change vs veh, ADSS / RFU, GK / Fold change vs veh, GK / RFU, ZNF148 / Fold change vs veh, ZNF148 / RFU, TAF9 / Fold change vs veh, TAF9 / RFU, SLC1A5 / Fold change vs veh, SLC1A5 / RFU, SLMO2 / Fold change vs veh, SLMO2 / RFU, ABCC4 / Fold change vs veh, ABCC4 / RFU, LOC101060439 /// RAP1B / Fold change vs veh, LOC101060439 /// RAP1B / RFU, RFX7 / Fold change vs veh, RFX7 / RFU, GTPBP10 / Fold change vs veh, GTPBP10 / RFU, CNEP1R1 / Fold change vs veh, CNEP1R1 / RFU, BIVM-ERCC5 /// ERCC5 / Fold change vs veh, BIVM-ERCC5 /// ERCC5 / RFU, ILF3 / Fold change vs veh, ILF3 / RFU 11762660_at / Fold change /veh 11762660_at / RFU VCAN (11757783_s_at) / Fold change /veh VCAN (11757783_s_at) / RFU DDX43 (11728927_at) / Fold change /veh DDX43 (11728927_at) / RFU KRT8 (11758188_x_at) / Fold change /veh KRT8 (11758188_x_at) / RFU NKD1 (11759106_at) / Fold change /veh NKD1 (11759106_at) / RFU SRD5A1 (11742802_a_at) / Fold change /veh SRD5A1 (11742802_a_at) / RFU TPSAB1 /// TPSB2 (11721975_s_at) / Fold change /veh TPSAB1 /// TPSB2 (11721975_s_at) / RFU GSTM3 (11746129_a_at) / Fold change /veh GSTM3 (11746129_a_at) / RFU IL23R (11737362_x_at) / Fold change /veh IL23R (11737362_x_at) / RFU TMEM51 (11727254_a_at) / Fold change /veh TMEM51 (11727254_a_at) / RFU PIWIL2 (11732686_x_at) / Fold change /veh PIWIL2 (11732686_x_at) / RFU ORM1 (11744905_x_at) / Fold change /veh ORM1 (11744905_x_at) / RFU CCDC152 (11743942_at) / Fold change /veh CCDC152 (11743942_at) / RFU ECM1 (11717891_a_at) / Fold change /veh ECM1 (11717891_a_at) / RFU IL23R (11748794_a_at) / Fold change /veh IL23R (11748794_a_at) / RFU TNFAIP8L3 (11732012_x_at) / Fold change /veh TNFAIP8L3 (11732012_x_at) / RFU MBOAT4 (11741988_at) / Fold change /veh MBOAT4 (11741988_at) / RFU 11764193_at / Fold change /veh 11764193_at / RFU TMEM53 (11763286_at) / Fold change /veh TMEM53 (11763286_at) / RFU MAGEB2 (11727129_at) / Fold change /veh MAGEB2 (11727129_at) / RFU TMEM200A (11744735_a_at) / Fold change /veh TMEM200A (11744735_a_at) / RFU CCDC152 (11751479_a_at) / Fold change /veh CCDC152 (11751479_a_at) / RFU FAM211A (11726209_a_at) / Fold change /veh FAM211A (11726209_a_at) / RFU RGS16 (11746705_a_at) / Fold change /veh RGS16 (11746705_a_at) / RFU VCAN (11755009_s_at) / Fold change /veh VCAN (11755009_s_at) / RFU RHOB (11743442_s_at) / Fold change /veh RHOB (11743442_s_at) / RFU RGS16 (11720943_a_at) / Fold change /veh RGS16 (11720943_a_at) / RFU RGS16 (11720944_at) / Fold change /veh RGS16 (11720944_at) / RFU, VPS4B / Fold change vs veh, VPS4B / RFU, CREB1 / Fold change vs veh, CREB1 / RFU, DNAJC13 / Fold change vs veh, DNAJC13 / RFU, GNAQ / Fold change vs veh, GNAQ / RFU, CDK5R1 / Fold change vs veh, CDK5R1 / RFU, ZRANB3 / Fold change vs veh, ZRANB3 / RFU, CUL4A / Fold change vs veh, CUL4A / RFU, CCNY / Fold change vs veh, CCNY / RFU, UFL1 / Fold change vs veh, UFL1 / RFU, COG3 / Fold change vs veh, COG3 / RFU, DIAPH2 / Fold change vs veh, DIAPH2 / RFU, SKA2 / Fold change vs veh, SKA2 / RFU, AFF3 / Fold change vs veh, AFF3 / RFU, LMF1 / Fold change vs veh, LMF1 / RFU, IPO11 / Fold change vs veh, IPO11 / RFU, DFFB / Fold change vs veh, DFFB / RFU, FOXP1 / Fold change vs veh, FOXP1 / RFU, CARD8 / Fold change vs veh, CARD8 / RFU, STRN3 / Fold change vs veh, STRN3 / RFU, ADK / Fold change vs veh, ADK / RFU, RASSF2 / Fold change vs veh, RASSF2 / RFU, WIPF1 / Fold change vs veh, WIPF1 / RFU, LARP1B / Fold change vs veh, LARP1B / RFU, RASA1 / Fold change vs veh, RASA1 / RFU, RB1 / Fold change vs veh, RB1 / RFU, PPFIA1 / Fold change vs veh, PPFIA1 / RFU, MAT2A / Fold change vs veh, MAT2A / RFU, CCT5 / Fold change vs veh, CCT5 / RFU, WDR92 / Fold change vs veh, WDR92 / RFU, CUX1 / Fold change vs veh, CUX1 / RFU, TTC7A / Fold change vs veh, TTC7A / RFU, TMEM135 / Fold change vs veh, TMEM135 / RFU, DEPTOR / Fold change vs veh, DEPTOR / RFU, CPM / Fold change vs veh, CPM / RFU, DNAJB6 / Fold change vs veh, DNAJB6 / RFU, CACNA2D3 / Fold change vs veh, CACNA2D3 / RFU, DTX4 / Fold change vs veh, DTX4 / RFU, TFCP2 / Fold change vs veh, TFCP2 / RFU, GMCL1 /// GMCL1P1 / Fold change vs veh, GMCL1 /// GMCL1P1 / RFU, AEBP2 / Fold change vs veh, AEBP2 / RFU, SNHG1 /// SNORD22 /// SNORD25 /// SNORD26 /// SNORD27 /// SNORD28 /// SNORD29 /// SNORD31 / Fold change vs veh, SNHG1 /// SNORD22 /// SNORD25 /// SNORD26 /// SNORD27 /// SNORD28 /// SNORD29 /// SNORD31 / Fold change (Aza/veh), C12orf56 (ProbeSet 11735607_a_at) / Fold change (ACY-1035/veh), C12orf56 (ProbeSet 11735607_a_at) / Fold change (Aza/veh), FGFR1OP (ProbeSet 11751329_s_at) / Fold change (ACY-1035/veh), FGFR1OP (ProbeSet 11751329_s_at) / Fold change (Aza/veh), VPS36 (ProbeSet 11739960_a_at) / Fold change (ACY-1035/veh), VPS36 (ProbeSet 11739960_a_at) / RFU SYPL1 (11715823_x_at) / Fold change /veh SYPL1 (11715823_x_at) / RFU IGFBP7 (11715501_s_at) / Fold change /veh IGFBP7 (11715501_s_at) / RFU REEP3 (11722064_at) / Fold change /veh REEP3 (11722064_at) / RFU IGLL1 (11728026_x_at) / Fold change /veh IGLL1 (11728026_x_at): dose or concentration left out as unconfirmed",
  "conditions": "MV-4-11 cells, 48 hours",
  "data": [
    {"compound": "Nc1ccc(-c2cccs2)cc1NC(=O)c1ccc2c(c1)cc(C1CC1)n2CCN1CCOCC1", "note": "[ACY-1035]", "values": [
      {"measurement": "RFU HAMP (11756126_x_at)", "value": 352.00, "unit": "RFU"}
    ]}
  ]
}
